Assays:
[1] = Plasma clearance in dog; assay type: ADME, organism-based, Canis lupus familiaris
in vivo [2] = conditions: Sprague-Dawley, rat, plasma, iv, 1 mg/kg
in vivo [3] = conditions: nude, mouse, plasma, iv, 1 mg/kg
Rattus norvegicus = experiment: Unbound plasma clearance in Sprague-Dawley rat at 1 mg/kg, iv; assay type: ADME, organism-based; design: dose 1 mg/kg, route intravenous; conditions: in vivo
[4] = Oral bioavailability in Beagle dog at 2 mg/kg; assay type: ADME, organism-based, Canis lupus familiaris; conditions: in vivo
[5] = Oral bioavailability in nude mouse at 25 mg/kg; assay type: ADME, organism-based; conditions: in vivo
[6] = Oral bioavailability in Sprague-Dawley rat at 5 mg/kg; assay type: ADME, organism-based; conditions: in vivo
[7] = Plasma clearance in Beagle dog at 1 mg/kg, iv; assay type: ADME, organism-based, Canis lupus familiaris; design: dose 1 mg/kg, route intravenous
[8] = Apparent permeability across apical to basolateral side in MDCK cells; assay type: ADME, cell-based, Canis lupus familiaris; conditions: dog

| Structure (SMILES) | clearance (in vivo [2]) [mL/min/kg] | clearance (in vivo [3]) [mL/min/kg] | further results |
| --- | --- | --- | --- |
| CC(C)n1ncnc1-c1cc2c(s1)-c1ccc(C(N)=O)cc1OCC2 |  |  | clearance [1]: 100 mL/min/kg |
| CC(C)n1ncnc1-c1nc2c(s1)CCOc1cc(C3CN(CC(C)(C)O)C3)ccc1-2 | 163 | 170 |  |
| CC(C)n1ncnc1-c1nc2c(s1)CCOc1cc(C3CN(C(C)(C)C(N)=O)C3)ccc1-2 | 55 | 104 |  |
| CC(C)n1ncnc1-c1nc2c(s1)CCOc1cc(-c3cnn(C(C)(C)C(N)=O)c3)ccc1-2 | 10 | 13.4 | CL free (Rattus norvegicus): 625 mL/min/kg |
| Cc1nc(-c2nc3c(s2)CCOc2cc(-c4cnn(CCO)c4)ccc2-3)n(C(C)C)n1 | 1.9 | 2.2 |  |
| CC(C)n1nc(N)nc1-c1nc2c(s1)CCOc1cc(-c3cnn(CC(C)(C)O)c3)ccc1-2 | 55 | 4 |  |
| CC(C)n1c(-c2nc3c(s2)CCOc2cc(-c4cnn(CC(C)(C)O)c4)ccc2-3)n[nH]c1=O | 84 | 22 |  |

More lines, main results first:

| clearance (in vivo [2]) [mL/min/kg] | clearance (in vivo [3]) [mL/min/kg] | Structure (SMILES) | further results |
| --- | --- | --- | --- |
| 128 | 132 | CC(C)n1ncnc1-c1nc2c(s1)CCOc1cc(C3CN(CCO)C3)ccc1-2 |  |
| 57 | 165 | CC(C)n1ncnc1-c1nc2c(s1)CCOc1cc(C3CN(C[C@H](O)CO)C3)ccc1-2 |  |
| 60 |  | CC(C)n1ncnc1-c1nc2c(s1)CCOc1cc(C3CN(C(=O)C(C)(C)N)C3)ccc1-2 | CL free (Rattus norvegicus): 1153 mL/min/kg |
| 5.4 | 9.5 | CC(C)n1ncnc1-c1nc2c(s1)CCOc1cc(-c3cnn(CCO)c3)ccc1-2 | bioavailability [4]: 22%; bioavailability [5]: 110%; bioavailability [6]: 83%; clearance [7]: 14 mL/min/kg; Papp A→B [8]: 16 ×10⁻⁶ cm/s |
| 6.8 | 3.1 | CC(C)n1ncnc1-c1nc2c(s1)CCOc1cc(-c3cnn(CC(C)(C)O)c3)ccc1-2 |  |
| 6.1 | 3.2 | CC(C)n1ncnc1-c1nc2c(s1)CCOc1cc(-c3cnn(CS(C)(=O)=O)c3)ccc1-2 |  |

— ChEMBL document CHEMBL2380305, “Discovery of thiazolobenzoxepin PI3-kinase inhibitors that spare the PI3-kinase β isoform” (Bioorg Med Chem Lett, 2013)
